The source made the active and inactive calls.
How the values were obtained:
[1] = viability of uninfected HEp-2 cells – cell-based, HTS, cytotoxicity control for RSV inhibitor project, dose response (AID 2410); format: functional; settings: human respiratory syncytial virus
[2] = biological target: T1, Calpain-2 catalytic subunit (Sus scrofa, UniProt P43367); assay: m-calpain protease blockers, concentration series – biochemical, fluorogenic peptide substrate, dose response (AID 1420); format: functional
T1 sequence (P43367 whole entry): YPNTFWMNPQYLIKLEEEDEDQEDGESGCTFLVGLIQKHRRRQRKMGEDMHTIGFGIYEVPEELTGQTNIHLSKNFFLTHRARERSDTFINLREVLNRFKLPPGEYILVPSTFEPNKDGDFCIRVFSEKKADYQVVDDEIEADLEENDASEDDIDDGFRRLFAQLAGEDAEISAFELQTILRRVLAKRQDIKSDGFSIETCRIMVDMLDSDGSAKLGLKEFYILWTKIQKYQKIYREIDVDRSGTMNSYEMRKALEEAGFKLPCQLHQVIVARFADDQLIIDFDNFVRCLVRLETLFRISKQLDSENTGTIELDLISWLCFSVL

CAAX prenyl protease 1 = CAAX prenyl protease 1 (Saccharomyces cerevisiae S288c, UniProt P47154); assay: yeast CAAX protease Ste24 inhibition – biochemical, S. cerevisiae, plate reader, cherry-pick, dose response (AID 488815)
[3] = restored growth of temperature-sensitive Burl-1 yeast – whole organism, S. cerevisiae, Burl-1 ts mutant, luminescence, counter-screen for SUMOylation pathway inhibitor project, dose response (AID 463199); format: functional
[4] = Trypanosoma cruzi growth suppression in host cells – NIH3T3 host cells, beta-gal luminescence, confirmation (AID 2044); format: functional, cell-based;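 further: intracellular parasites grown in NIH/3T3 mouse fibroblasts as host cells; luminescent beta-galactosidase reporter signal from transgenic T. cruzi replicating inside host cells; inhibitors lower the luminescence signal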
[5] = viability of PTEN-deleted HCT116 cells – cell-based, HCT116 PTEN knockout, dose response (AID 1047); format: functional;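 further: HCT116 colon tumor cells with PTEN knocked out; cells exposed to compound for 60 hours before readout; potency for loss of cell viability measured by luminescence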
[6] = NIH3T3 cell viability loss – ATP luminescence, mouse fibroblasts, counter-screen, dose response (AID 2010); format: functional, cell-based;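 further: cells exposed to compound for about 90 hours before reading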
[7] = viability of HCT116 lacking mutant beta-catenin – cell-based, human colon tumor, dose response (AID 1045); format: functional;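 further: HCT116 colon tumor cells with beta catenin knocked out; cells exposed to compound for 60 hours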
[8] = biological target: Voltage-dependent T-type calcium channel subunit alpha-1H (Homo sapiens, UniProt O95180); format: functional;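 further: channel activity triggered by adding a high calcium stimulation buffer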
[9] = Luminescence Cell-Based Dose Retest to Confirm Inhibitors of Cancer Stem Cells. [Related pubchem assays (depositor defined):AID2717, AID2721]; format: functional; settings: Homo sapiens
HEK293 [10] = assay: cells; settings: Homo sapiens
HEK293 [11] = assay: cells; settings: Homo sapiens; remark: listed apart in the source
[12] = biological target: T2, RNA-binding protein pos-1 (Caenorhabditis elegans, UniProt G5EF15); assay: disruptors of C. elegans POS-1 RNA interaction – biochemical, fluorescence polarization, dose response (AID 1964);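 further: purified POS-1 fused to maltose binding protein made in E. coli; potency of compounds blocking POS-1 binding to fluorescent RNA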
T2 sequence (G5EF15 whole entry): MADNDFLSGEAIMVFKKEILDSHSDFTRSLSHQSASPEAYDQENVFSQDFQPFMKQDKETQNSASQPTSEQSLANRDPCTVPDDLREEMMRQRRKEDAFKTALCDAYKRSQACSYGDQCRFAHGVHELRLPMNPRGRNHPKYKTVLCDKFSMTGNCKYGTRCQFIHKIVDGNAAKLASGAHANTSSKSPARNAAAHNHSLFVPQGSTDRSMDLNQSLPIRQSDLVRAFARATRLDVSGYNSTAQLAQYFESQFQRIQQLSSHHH

[13] = biological target: T3, Zinc finger protein mex-5 (Caenorhabditis elegans, UniProt Q9XUB2); assay: potency of MEX-5 RNA-binding blockers – biochemical, C. elegans, fluorescence polarization, dose response (AID 1960)
T3 sequence (Q9XUB2 whole entry): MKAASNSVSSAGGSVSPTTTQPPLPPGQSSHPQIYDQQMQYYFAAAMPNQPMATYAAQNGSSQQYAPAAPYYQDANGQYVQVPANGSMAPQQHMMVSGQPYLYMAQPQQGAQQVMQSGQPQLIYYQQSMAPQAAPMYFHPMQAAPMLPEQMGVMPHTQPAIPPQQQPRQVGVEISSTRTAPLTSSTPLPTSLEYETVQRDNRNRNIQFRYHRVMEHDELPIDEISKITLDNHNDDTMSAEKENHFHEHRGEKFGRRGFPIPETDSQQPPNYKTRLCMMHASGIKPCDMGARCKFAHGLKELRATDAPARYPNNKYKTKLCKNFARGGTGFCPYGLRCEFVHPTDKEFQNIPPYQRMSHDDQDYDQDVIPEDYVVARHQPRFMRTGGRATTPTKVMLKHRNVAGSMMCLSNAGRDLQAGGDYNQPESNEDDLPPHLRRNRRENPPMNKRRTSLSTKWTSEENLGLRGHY

Large T antigen = Large T antigen (Simian virus 40, UniProt P03070); format: functional, Betapolyomavirus macacae;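 further: Confirmatory-stage PubChem screen for compounds that inhibit SV40 T antigen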
[14] = biological target: Intestinal-type alkaline phosphatase (Mus musculus, UniProt P24822); assay: PubChem AID 488785; format: functional
[15] = biological target: T4, Alkaline phosphatase, tissue-nonspecific isozyme (Homo sapiens, UniProt P05186); assay: TNAP enzyme inhibition by screening hits, dose response, selectivity assay for mouse IAP inhibitor project, biochemical, human TNAP, uHTS hits (AID 488906); format: functional
T4 sequence (P05186 whole entry): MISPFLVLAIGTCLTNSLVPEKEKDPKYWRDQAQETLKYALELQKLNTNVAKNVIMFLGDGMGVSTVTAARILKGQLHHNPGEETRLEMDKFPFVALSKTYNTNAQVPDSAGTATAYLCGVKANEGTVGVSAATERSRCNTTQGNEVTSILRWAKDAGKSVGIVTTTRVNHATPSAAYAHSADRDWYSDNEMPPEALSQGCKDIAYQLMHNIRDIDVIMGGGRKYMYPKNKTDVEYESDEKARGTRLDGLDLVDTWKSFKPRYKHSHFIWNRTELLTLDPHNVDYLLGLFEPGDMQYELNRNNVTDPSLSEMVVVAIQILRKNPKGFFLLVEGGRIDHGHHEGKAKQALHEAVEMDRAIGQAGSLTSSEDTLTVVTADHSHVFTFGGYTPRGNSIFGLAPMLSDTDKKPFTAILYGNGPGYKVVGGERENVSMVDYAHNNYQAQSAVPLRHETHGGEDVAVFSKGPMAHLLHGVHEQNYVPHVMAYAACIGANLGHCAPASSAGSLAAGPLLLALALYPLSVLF

[16] = biological target: Intestinal-type alkaline phosphatase (Homo sapiens, UniProt P09923); assay: inhibition of human intestinal alkaline phosphatase – biochemical, dose response (AID 488876); format: functional
[17] = decrease of insulin promoter-GFP reporter – imaging, high-content screening, mouse beta cells (AID 1628); format: functional; settings: MIN6
[18] = system: Streptococcus sp. 'group A'; assay: Streptococcus pyogenes SK(-)GAS viability under kanamycin – luminescence, BacTiterGlo, confirmation, counter-screen for streptokinase expression inhibitor project, dose response (AID 1900); format: functional, organism-based
[19] = MIN6 cell viability loss – mouse insulinoma, cytotoxicity control, dose response (AID 2122); format: functional;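 further: confirmatory high-throughput counterscreen run to flag cytotoxic compounds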
Streptokinase A = biological target: T5, Streptokinase A (Streptococcus pyogenes serotype M1, UniProt P10520); assay: viability-normalized secreted streptokinase activity reduction – plasminogen activation absorbance, OD405, dose response (AID 1914); format: functional, Streptococcus pyogenes M1 GAS;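 further: secreted streptokinase activity via plasminogen activation per viability signal from cell pellet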
T5 sequence (P10520 whole entry): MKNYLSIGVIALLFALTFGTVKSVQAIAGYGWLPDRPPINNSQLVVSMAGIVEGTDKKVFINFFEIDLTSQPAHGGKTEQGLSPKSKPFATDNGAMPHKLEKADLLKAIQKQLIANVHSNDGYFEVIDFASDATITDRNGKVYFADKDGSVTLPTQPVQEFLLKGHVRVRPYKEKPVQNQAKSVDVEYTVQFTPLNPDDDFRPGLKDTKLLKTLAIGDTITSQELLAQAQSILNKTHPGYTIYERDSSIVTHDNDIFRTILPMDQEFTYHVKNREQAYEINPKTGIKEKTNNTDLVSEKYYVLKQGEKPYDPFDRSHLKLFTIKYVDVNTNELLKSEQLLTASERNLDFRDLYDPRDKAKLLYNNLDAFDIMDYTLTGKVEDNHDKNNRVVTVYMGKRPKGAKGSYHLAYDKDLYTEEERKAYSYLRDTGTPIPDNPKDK

[20] = biological target: Voltage-gated inwardly rectifying potassium channel KCNH2 (Homo sapiens, UniProt Q12809); assay: concentration-dependent hERG rescue from blockers – cell-based, thallium flux, dose response (AID 2121); format: ADME
Streptococcus = assay: GAS UMAA2166 growth inhibition – luminescence, BacTiterGlo, counter-screen for streptokinase expression inhibitor project, dose response (AID 1915); format: functional, organism-based;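 further: potency for reduction of bacterial viability or growth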
HEK293 [21] = assay: EBV LMP1 TES2 canonical NF-kB signalling blockers – cell-based, HEK293, luciferase, cherry-pick, dose response (AID 588343); format: functional; settings: Homo sapiens
[22] = biological target: T6, Kappa-type opioid receptor (Homo sapiens, UniProt P41145); assay: SAR analysis of small molecule agonists of the kappa opioid receptor via a luminescent beta-arrestin assay. [Related pubchem assays (depositor defined):AID1777, AID1786, AID1966, AID2133, AID2136, AID2348, AID2352, AID2357, AID2359, AID2370, AID2420, AID2478, AID2491, AID2492, AID2493, AID2497, AID2498, AID2500, AID449737, AID488822, AID488842]; format: functional
Mu-type opioid receptor [23] = biological target: T7, Mu-type opioid receptor (Homo sapiens, UniProt P35372); assay: mu opioid receptor activators, image-based, SAR follow-up (AID 2352); format: functional
[24] = biological target: T8, Delta-type opioid receptor (Homo sapiens, UniProt P41143); assay: DOR agonists, SAR follow-up, image-based (AID 2370); format: functional
[25] = biological target: T6, Kappa-type opioid receptor; assay: kappa opioid receptor blockers, image-based, SAR follow-up (AID 2348); format: functional
Mu-type opioid receptor [26] = biological target: T7, Mu-type opioid receptor; assay: mu opioid receptor blockers – image-based, SAR follow-up (AID 2420); format: functional;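 further: compounds added before stimulation of receptor with agonist DAMGO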
[27] = biological target: T6, Kappa-type opioid receptor; assay: kappa opioid receptor activation potency – imaging, image-based, SAR follow-up (AID 2359); format: functional
[28] = biological target: T8, Delta-type opioid receptor; assay: delta opioid receptor blockers – image-based, SAR follow-up (AID 2357); format: functional
[29] = biological target: T9, Mannose-6-phosphate isomerase (Homo sapiens, UniProt P34949); assay: phosphomannose isomerase inhibition – biochemical, fluorescence intensity, confirmation (AID 1535)
T9 sequence (P34949 whole entry): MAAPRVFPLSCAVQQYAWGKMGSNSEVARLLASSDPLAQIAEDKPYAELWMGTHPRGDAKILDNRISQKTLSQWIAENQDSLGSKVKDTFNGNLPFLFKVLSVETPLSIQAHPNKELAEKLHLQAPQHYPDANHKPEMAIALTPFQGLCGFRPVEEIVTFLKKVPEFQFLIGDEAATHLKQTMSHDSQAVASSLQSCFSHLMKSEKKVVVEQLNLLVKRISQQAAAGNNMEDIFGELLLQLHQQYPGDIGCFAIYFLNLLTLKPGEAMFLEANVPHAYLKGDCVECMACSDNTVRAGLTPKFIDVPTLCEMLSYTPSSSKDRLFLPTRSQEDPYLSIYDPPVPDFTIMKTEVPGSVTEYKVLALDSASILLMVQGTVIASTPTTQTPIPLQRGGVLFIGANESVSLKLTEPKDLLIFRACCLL

Phosphomannomutase 2 = Phosphomannomutase 2 (Homo sapiens, UniProt O15305); assay: Counter screen SAR assay for PMM2 inhibitors via a fluorescence intensity assay. [Related pubchem assays (depositor defined):AID1545, AID1574]
Candida albicans = assay: antifungal activity against resistant Candida strain – CaCi-8, fluconazole, Alamar Blue, dry powder, dose response (AID 488807); format: functional, organism-based

T6 sequence (P41145 whole entry): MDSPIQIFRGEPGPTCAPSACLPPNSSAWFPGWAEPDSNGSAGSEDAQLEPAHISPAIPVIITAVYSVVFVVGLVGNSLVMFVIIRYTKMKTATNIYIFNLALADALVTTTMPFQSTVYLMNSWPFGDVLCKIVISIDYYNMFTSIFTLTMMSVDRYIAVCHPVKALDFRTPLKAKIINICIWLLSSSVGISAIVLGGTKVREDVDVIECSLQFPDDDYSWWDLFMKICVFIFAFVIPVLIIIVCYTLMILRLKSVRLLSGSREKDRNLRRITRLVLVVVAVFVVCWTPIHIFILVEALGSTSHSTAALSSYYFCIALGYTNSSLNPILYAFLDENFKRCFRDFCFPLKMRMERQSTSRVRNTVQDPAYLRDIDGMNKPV
T7 sequence (P35372 whole entry): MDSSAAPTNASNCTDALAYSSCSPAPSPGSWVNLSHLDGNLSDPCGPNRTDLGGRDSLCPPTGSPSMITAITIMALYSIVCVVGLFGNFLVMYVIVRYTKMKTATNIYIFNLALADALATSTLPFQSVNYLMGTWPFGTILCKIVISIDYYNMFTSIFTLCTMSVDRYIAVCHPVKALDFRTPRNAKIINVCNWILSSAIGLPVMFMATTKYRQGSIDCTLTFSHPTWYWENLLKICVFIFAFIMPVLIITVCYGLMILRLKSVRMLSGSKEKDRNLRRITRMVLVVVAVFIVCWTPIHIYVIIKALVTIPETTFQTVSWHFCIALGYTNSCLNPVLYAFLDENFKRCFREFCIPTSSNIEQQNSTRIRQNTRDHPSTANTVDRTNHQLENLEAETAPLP
T8 sequence (P41143 whole entry): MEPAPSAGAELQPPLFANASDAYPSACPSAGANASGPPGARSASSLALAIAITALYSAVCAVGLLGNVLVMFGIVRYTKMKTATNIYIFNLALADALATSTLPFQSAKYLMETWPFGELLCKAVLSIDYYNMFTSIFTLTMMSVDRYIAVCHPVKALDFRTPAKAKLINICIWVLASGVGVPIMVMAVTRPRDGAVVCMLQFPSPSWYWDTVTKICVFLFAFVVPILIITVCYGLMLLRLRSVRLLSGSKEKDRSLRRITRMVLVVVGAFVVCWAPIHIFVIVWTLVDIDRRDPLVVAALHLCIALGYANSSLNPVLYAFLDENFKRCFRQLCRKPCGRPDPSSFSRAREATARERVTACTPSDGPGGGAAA
Chain of Intestinal-type alkaline phosphatase (Homo sapiens, UniProt P09923) (P09923 whole entry): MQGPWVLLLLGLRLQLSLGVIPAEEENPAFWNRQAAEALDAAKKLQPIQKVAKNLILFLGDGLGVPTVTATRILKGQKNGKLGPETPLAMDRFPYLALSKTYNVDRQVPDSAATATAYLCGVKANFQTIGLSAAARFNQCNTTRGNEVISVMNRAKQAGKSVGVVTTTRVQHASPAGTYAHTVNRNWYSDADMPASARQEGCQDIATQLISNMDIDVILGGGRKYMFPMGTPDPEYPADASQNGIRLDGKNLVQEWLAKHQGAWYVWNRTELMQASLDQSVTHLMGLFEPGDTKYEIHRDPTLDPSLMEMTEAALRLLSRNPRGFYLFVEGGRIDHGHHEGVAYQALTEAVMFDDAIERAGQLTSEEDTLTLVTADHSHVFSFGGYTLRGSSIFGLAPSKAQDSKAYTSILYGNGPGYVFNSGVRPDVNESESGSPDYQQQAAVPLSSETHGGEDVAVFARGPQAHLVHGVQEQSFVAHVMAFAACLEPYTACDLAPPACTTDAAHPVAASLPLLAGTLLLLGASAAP
Chain of Large T antigen (P03070 whole entry): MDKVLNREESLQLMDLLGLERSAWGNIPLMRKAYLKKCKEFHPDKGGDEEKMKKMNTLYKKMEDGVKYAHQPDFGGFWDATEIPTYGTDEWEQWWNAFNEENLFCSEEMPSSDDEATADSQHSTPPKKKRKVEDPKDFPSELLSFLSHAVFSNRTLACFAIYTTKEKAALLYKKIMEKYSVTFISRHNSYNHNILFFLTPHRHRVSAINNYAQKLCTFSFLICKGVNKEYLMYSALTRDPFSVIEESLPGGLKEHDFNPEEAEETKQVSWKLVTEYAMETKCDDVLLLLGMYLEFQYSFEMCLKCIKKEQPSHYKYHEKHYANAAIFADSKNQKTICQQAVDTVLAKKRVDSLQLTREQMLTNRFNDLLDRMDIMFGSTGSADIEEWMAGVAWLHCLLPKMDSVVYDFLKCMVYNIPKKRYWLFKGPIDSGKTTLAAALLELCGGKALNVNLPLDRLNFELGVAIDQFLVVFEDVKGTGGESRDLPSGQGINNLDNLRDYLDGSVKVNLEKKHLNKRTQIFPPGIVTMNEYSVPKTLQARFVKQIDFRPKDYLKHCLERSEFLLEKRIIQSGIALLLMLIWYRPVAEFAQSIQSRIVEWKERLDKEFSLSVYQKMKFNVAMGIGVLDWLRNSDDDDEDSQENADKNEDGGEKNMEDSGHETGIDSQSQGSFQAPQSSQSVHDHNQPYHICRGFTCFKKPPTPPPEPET
Chain of Intestinal-type alkaline phosphatase (Mus musculus, UniProt P24822) (P24822 whole entry): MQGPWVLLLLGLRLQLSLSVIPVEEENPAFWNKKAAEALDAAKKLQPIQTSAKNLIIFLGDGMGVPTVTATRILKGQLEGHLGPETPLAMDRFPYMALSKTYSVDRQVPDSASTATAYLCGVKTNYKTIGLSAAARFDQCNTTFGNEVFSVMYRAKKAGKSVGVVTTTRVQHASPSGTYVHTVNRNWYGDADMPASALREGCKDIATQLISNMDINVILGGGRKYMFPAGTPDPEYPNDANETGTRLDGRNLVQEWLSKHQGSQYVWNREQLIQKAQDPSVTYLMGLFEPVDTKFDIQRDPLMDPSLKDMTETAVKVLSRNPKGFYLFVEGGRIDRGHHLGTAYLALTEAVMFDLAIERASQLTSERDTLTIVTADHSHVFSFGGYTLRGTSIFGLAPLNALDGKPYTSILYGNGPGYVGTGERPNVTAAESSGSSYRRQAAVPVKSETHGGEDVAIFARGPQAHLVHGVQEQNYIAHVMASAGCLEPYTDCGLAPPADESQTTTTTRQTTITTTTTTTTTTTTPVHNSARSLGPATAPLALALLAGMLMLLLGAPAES
Chain of Phosphomannomutase 2 (O15305 whole entry): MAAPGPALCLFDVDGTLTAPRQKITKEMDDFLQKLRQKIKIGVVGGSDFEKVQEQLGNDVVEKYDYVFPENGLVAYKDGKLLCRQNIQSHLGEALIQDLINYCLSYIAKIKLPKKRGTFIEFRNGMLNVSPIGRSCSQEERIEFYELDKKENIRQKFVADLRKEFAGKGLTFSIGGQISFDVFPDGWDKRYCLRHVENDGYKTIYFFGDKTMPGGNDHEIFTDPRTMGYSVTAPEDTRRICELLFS
Chain of Voltage-gated inwardly rectifying potassium channel KCNH2 (Q12809 whole entry): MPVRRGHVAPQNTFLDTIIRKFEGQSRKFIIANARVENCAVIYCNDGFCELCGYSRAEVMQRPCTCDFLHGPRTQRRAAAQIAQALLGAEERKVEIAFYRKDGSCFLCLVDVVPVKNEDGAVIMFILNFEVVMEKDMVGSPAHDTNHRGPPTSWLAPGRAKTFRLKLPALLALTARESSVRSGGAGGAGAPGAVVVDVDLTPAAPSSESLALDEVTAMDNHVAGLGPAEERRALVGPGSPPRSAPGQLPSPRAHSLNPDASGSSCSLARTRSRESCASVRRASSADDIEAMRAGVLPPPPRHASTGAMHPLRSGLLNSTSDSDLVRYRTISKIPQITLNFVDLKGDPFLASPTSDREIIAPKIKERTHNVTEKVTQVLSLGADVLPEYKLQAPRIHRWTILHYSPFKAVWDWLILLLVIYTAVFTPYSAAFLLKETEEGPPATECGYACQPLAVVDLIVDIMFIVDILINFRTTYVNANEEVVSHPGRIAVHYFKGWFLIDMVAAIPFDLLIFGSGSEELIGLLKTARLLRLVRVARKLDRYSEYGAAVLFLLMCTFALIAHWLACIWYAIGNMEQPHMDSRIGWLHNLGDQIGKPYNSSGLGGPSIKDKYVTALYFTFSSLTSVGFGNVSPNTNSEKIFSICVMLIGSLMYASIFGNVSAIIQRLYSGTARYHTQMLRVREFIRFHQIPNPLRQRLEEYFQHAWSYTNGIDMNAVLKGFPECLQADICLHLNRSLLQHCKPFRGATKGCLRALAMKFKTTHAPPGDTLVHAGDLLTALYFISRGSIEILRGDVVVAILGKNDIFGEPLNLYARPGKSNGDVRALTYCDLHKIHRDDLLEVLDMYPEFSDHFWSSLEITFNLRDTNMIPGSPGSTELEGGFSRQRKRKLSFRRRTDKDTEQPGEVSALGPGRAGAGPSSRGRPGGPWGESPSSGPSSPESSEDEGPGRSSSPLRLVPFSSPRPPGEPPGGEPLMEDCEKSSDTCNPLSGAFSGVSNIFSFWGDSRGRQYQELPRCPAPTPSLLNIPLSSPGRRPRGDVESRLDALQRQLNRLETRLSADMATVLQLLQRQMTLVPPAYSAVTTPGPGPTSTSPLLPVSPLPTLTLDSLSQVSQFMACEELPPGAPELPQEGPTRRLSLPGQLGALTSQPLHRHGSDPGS
Chain of CAAX prenyl protease 1 (P47154 whole entry): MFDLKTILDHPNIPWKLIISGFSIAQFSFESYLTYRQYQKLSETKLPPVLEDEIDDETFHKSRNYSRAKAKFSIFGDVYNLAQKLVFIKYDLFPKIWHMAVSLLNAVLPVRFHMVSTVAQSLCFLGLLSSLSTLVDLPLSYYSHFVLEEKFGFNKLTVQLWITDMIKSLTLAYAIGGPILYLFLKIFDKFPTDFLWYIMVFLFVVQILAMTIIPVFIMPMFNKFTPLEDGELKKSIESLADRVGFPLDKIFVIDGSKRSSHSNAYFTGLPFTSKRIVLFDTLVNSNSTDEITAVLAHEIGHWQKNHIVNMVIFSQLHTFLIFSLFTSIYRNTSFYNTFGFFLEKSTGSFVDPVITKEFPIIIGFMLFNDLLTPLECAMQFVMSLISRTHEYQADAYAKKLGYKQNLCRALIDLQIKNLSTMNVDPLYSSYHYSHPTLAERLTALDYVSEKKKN

Cc1ccc(Nc2nc(-c3ccc(S(=O)(=O)N4CCOCC4)cc3)cs2)cc1Cl
CC50 [1]: 4.91 µM (active) | IC50 [2]: 9.54 µM (active) | AC50 (CAAX prenyl protease 1): > 100 µM (inactive)

O=C(O)/C=C\C(=O)NC1CCCCC1
AC50 [3]: 54.1 µM (active)

CCN(CC)S(=O)(=O)c1ccc2c(c1)C(=NO)c1cc(S(=O)(=O)N(CC)CC)ccc1-2
CC50 [1]: 9.81 µM (active) | EC50 [4]: 0.84 µM (active) | EC50 [5]: 6.41 µM (active) | EC50 [6]: < 6 µM (inconclusive) | EC50 [7]: 7.08 µM (active) | EC50 [8]: 1.6 µM (active) | AC50 [9]: 0.742 µM (active) | IC50 (cells): 5.19 µM (active) | EC50 (HEK293 [10]): > 59.6 µM (inactive) | EC50 (HEK293 [11]): > 59.6 µM (inactive)

O=C1CNC(=S)N1CCc1ccc(O)c(O)c1
EC50 [12]: > 300 µM (not active) | EC50 [13]: 26.8 µM (active) | IC50 (Large T antigen): 39.6 µM (active) | IC50 [14]: 6 µM (active) | IC50 [15]: > 100 µM (inactive) | IC50 [16]: > 100 µM (inactive)

Oc1c(N=NC(S)=Nc2ccccc2F)c2ccccc2n1Cc1ccccc1
IC50 [17]: 6.95 µM (active) | EC50 [18]: 0.562 µM (active) | IC50 [19]: 10.1 µM (inactive) | EC50 (Streptokinase A): > 150 µM (not active) | EC50 [20]: 0.89 µM (active) | EC50 (Streptococcus): 6.93 µM (active) | AC50 (HEK293 [21]): 3.07 µM (active)

O=C(c1ccccn1)N(Cc1cc2ccccc2[nH]c1=O)C1CCCCC1
EC50 [22]: > 10 µM (inactive) | EC50 (Mu-type opioid receptor [23]): > 32 µM (inactive) | EC50 [24]: > 32 µM (inactive) | IC50 [25]: > 32 µM (inactive) | IC50 (Mu-type opioid receptor [26]): > 32 µM (inactive) | EC50 [27]: 18.1 µM (inactive) | IC50 [28]: > 32 µM (inactive)

COc1ccc(C)c(/N=c2\ssnc2Cl)c1
IC50 [29]: 49.9 µM (active) | IC50 (Phosphomannomutase 2): > 100 µM (inactive)

COC(=O)Cn1nc(-c2ccc(C)cc2)c2ccccc21
AC50 (Candida albicans): 1.45 µM (active)
